Data on five compounds can be found in ChEMBL document CHEMBL5052849, “Compositions and methods for measuring and inhibiting calpain-5 activity” (2021).

Set-up in all cases: species or system Homo sapiens
Assay [1] in a line: Inhibition of CAPN5 G267S mutant (unknown origin) using DABCYL-TPLKSPPPSPR-EDANS as substrate incubated for 30 mins and measured by High-throughput FRET-based assay.
The nature of assay [2]: Inhibition of wild-type CAPN5 (unknown origin).
Assay [3] is described as follows: Inhibition of CAPN5 R243L mutant (unknown origin).

Structures are written as SMILES. Non-standard residues stand in square brackets, D forms with d. Residues, ends and D or L forms follow the SMILES beside them. Nle = CCCC[C@H](N)C(=O)O

As a reminder, the IC50 is the point on the concentration scale where inhibition reaches its midpoint.

For `CCCC[C@@H](C=O)NC(=O)[C@H](CC(C)C)NC(=O)[C@H](CC(C)C)NC(C)=O` (Ac-Leu-Leu-[Nle]-aldehyde), the IC50 in assay [1] stood at 136 nM.
For `CC(=O)N[C@@H](CC(C)C)C(=O)N[C@@H](CC(C)C)C(=O)N[C@H](C=O)CCCNC(=N)N` [LEUPEPTIN], the results for the IC50 in assay [2] and in assay [3] were 165 nM and “Not Active”, respectively.
Take `CC[C@H](C)[C@H](NC(=O)[C@H](CCC(=O)O)NC(=O)[C@@H](NC(=O)[C@@H](N)CCCCN)[C@@H](C)CC)C(=O)N[C@H](C(=O)N[C@@H](CCCNC(=N)N)C(=O)N[C@@H](CCCCNC)C(=O)N[C@@H](CCCCNC)C(=O)N1CCC[C@H]1C(=O)N[C@H](C(=O)N[C@@H](Cc1ccccc1)C(=O)N[C@@H](CCCCN)C(=O)N[C@@H](CCCCN)C(=O)N[C@@H](C)C(=O)N[C@H](C(=O)N[C@H](C(=O)O)C(C)C)[C@@H](C)O)[C@@H](C)CC)C(C)C` (HELM PEPTIDE1{K.I.E.I.V.R.[CNCCCC[C@H](N[*:1])C(=O)[*:2]].[CNCCCC[C@H](N[*:1])C(=O)[*:2]].P.I.F.K.K.A.T.V}$$$$V2.0): the figures for the IC50 in assay [1], in assay [2] and in assay [3] (read-out: IC50) were 1200 nM, 496 nM and 126 nM, respectively.
Turning to `CC[C@H](C)[C@H](NC(=O)[C@H](CCC(=O)O)NC(=O)[C@@H](NC(=O)[C@@H](N)CCCCN)[C@@H](C)CC)C(=O)N[C@H](C(=O)N[C@@H](CCCNC(=N)N)C(=O)N[C@@H](CCCCNC)C(=O)N[C@@H](CCCCN)C(=O)N1CCC[C@H]1C(=O)N[C@H](C(=O)N[C@@H](Cc1ccccc1)C(=O)N[C@@H](CCCCN)C(=O)N[C@@H](CCCCN)C(=O)N[C@@H](C)C(=O)N[C@H](C(=O)N[C@H](C(=O)O)C(C)C)[C@@H](C)O)[C@@H](C)CC)C(C)C` (HELM PEPTIDE1{K.I.E.I.V.R.[CNCCCC[C@H](N[*:1])C(=O)[*:2]].K.P.I.F.K.K.A.T.V}$$$$V2.0), the IC50 is 3.6 nM in assay [1], 24000 nM in assay [2] and 29.5 nM in assay [3] (read-out: IC50).
In the case of `CCCC[C@@H](C=O)NC(=O)[C@H](CC(C)C)NC(=O)OCc1ccccc1` [CALPEPTIN], the IC50 in assay [1] was 1100 nM; in assay [2], 8.35 nM; in assay [3] it was “Not Active”.
